In patent US5817667A, “Compounds and methods for the treatment of cancer” (University of Georgia Research Foudation, priority 1994, dated 1998):

Key:
HCT-116 = test: NCI cancer screening, growth inhibition (SRB); assay type: cell-based; details: Colon Cancer, 48 hours exposure
NCI-H322M = test: cells; details: Homo sapiens, 48 h, read-out: Log10 GI50 (converted)
CAKI-1 = test: NCI cancer screening, growth inhibition (SRB); assay type: cell-based; details: Renal Cancer, 48 hours exposure
HOP-62 = test: NCI cancer screening, growth inhibition (SRB); assay type: cell-based; details: Non-Small Cell Lung Cancer, 48 hours exposure
U251 = test: NCI cancer screening, growth inhibition (SRB); assay type: cell-based; details: CNS Cancer, 48 hours exposure
OVCAR-3 = test: NCI cancer screening, growth inhibition (SRB); assay type: cell-based; details: Homo sapiens, OVCAR-3, 48 h, read-out: Log10 GI50 (converted)
TK-30 = test: NCI cancer screening, growth inhibition (SRB); assay type: cell-based
HS578T = test: NCI cancer screening, growth inhibition (SRB); assay type: cell-based
CCRF-CEM = test: NCI cancer screening, growth inhibition (SRB); assay type: cell-based; details: Leukemia, 48 hours exposure
mice = test: Toxicity to mice in the P388 leukemia protocol; assay type: in vivo, BDF1 mice; details: 75 mg/kg/dose ip, twice daily for five days
Description: 10^6 Leukemia P388 cells were implanted ip to BDF1 mice obtained from Southern Research Institute, Alabama. L(-)-OddC was administered ip twice daily for five days starting one day after tumor cell implantation.

SK-MEL-28 = test: NCI cancer screening, growth inhibition (SRB); assay type: cell-based; details: Melanoma, 48 hours exposure
cells = details: 48 h, read-out: Log10 GI50 (converted)
HT29 = test: NCI cancer screening, growth inhibition (SRB); assay type: cell-based
NCI-H522 = test: NCI cancer screening, growth inhibition (SRB); assay type: cell-based; details: Non-Small Cell Lung Cancer, 48 hours exposure
RPMI-2.26 = test: NCI cancer screening, growth inhibition (SRB); assay type: cell-based; details: 48 h, read-out: Log10 GI50 (converted)
SK-OV-3 = test: NCI cancer screening, growth inhibition (SRB); assay type: cell-based; details: Homo sapiens, SK-OV-3, 48 h, read-out: Log10 GI50 (converted)
LOX D6VI = test: NCI cancer screening, growth inhibition (SRB); assay type: cell-based; details: Melanoma, 48 hours exposure
A549/ATCC = test: NCI cancer screening, growth inhibition (SRB); assay type: cell-based; details: Non-Small Cell Lung Cancer, 48 hours exposure
PC-3 = test: NCI cancer screening, growth inhibition (SRB); assay type: cell-based; details: Prostate Cancer, 48 hours exposure
[1] = Non-Small Cell Lung Cancer; 48 hours exposure
M14 = test: NCI cancer screening, growth inhibition (SRB); assay type: cell-based; details: Melanoma, 48 hours exposure
785-4 = test: NCI cancer screening, growth inhibition (SRB); assay type: cell-based; details: Renal Cancer, 48 hours exposure
NCI-H23 = test: NCI cancer screening, growth inhibition (SRB); assay type: cell-based; details: Non-Small Cell Lung Cancer, 48 hours exposure
MDA-N = test: NCI cancer screening, growth inhibition (SRB); assay type: cell-based; details: Breast Cancer, 48 hours exposure
SNB-19 = test: NCI cancer screening, growth inhibition (SRB); assay type: cell-based; details: CNS Cancer, 48 hours exposure
MDA-MB-231/ATCC = test: cells; details: Homo sapiens, MDA-MB-231, 48 h, read-out: Log10 GI50 (converted)
K2112 = details: Colon Cancer; 48 hours exposure
K-562 = test: NCI cancer screening, growth inhibition (SRB); assay type: cell-based; details: Leukemia, 48 hours exposure
COLO205 = test: NCI cancer screening, growth inhibition (SRB); assay type: cell-based; details: Homo sapiens, COLO 205, 48 h, read-out: Log10 GI50 (converted)
MCF7 = test: NCI cancer screening, growth inhibition (SRB); assay type: cell-based; details: Breast Cancer, 48 hours exposure
SR = test: NCI cancer screening, growth inhibition (SRB); assay type: cell-based; details: Leukemia, 48 hours exposure
MALME-3M = test: NCI cancer screening, growth inhibition (SRB); assay type: cell-based; details: Melanoma, 48 hours exposure
UACC-62 = test: NCI cancer screening, growth inhibition (SRB); assay type: cell-based; details: Melanoma, 48 hours exposure
[2] = read-out: Log10 GI50 (converted)

With Nc1ccn([C@@H]2CO[C@H](CO)O2)c(=O)n1 [(-)-OddC, (-)-(2S,4S)-1-(2-hydroxymethyl-1,3-dioxolan-4-yl)cytosine] the “Log10 TGI” value (HCT-116) was > -4.00, the GI50 (HCT-116; Homo sapiens, HCT-116, read-out: Log10 GI50 (converted)) was 5.89 µM and the GI50 (NCI-H322M) was > 100 µM. For the same compound, the GI50 (CAKI-1; Homo sapiens, CAKI-1, read-out: Log10 GI50 (converted)) was 0.224 µM, the “Log10 TGI” value (CAKI-1) was -4.87 and the GI50 (HOP-62; Homo sapiens, HOP-62, read-out: Log10 GI50 (converted)) was 0.589 µM. The “Log10 TGI” value (HOP-62) was -4.71, the “Log10 TGI” value (U251) was > -4.00 and the GI50 (U251; Homo sapiens, U-251, read-out: Log10 GI50 (converted)) was 12.3 µM. For the same compound, the GI50 (OVCAR-3) was 36.3 µM, the GI50 (TK-30; 48 h, read-out: Log10 GI50 (converted)) was > 100 µM and the “Log10 TGI” value (TK-30; Renal Cancer, 48 hours exposure) was > -4.00. The “Log10 TGI” value (HS578T; Breast Cancer, 48 hours exposure) was > -4.00, the GI50 (HS578T; Homo sapiens, Hs-578T, 48 h, read-out: Log10 GI50 (converted)) was > 100 µM and the GI50 (CCRF-CEM; Homo sapiens, CCRF-CEM, read-out: Log10 GI50 (converted)) was 0.229 µM. The “Log10 TGI” value (CCRF-CEM) was > -4.00, the “toxicity to the mice” value (mice) was “toxic to the mice” and the GI50 (SK-MEL-28; Homo sapiens, SK-MEL-28, read-out: Log10 GI50 (converted)) was 49 µM. The “Log10 TGI” value (SK-MEL-28) was > -4.00, the GI50 (cells) was > 100 µM and the “Log10 TGI” value (HT29; Colon Cancer, 48 hours exposure) was > -4.00. The GI50 (HT29; Homo sapiens, HT-29, 48 h, read-out: Log10 GI50 (converted)) was > 100 µM, the GI50 (NCI-H522; Homo sapiens, NCI-H522, read-out: Log10 GI50 (converted)) was 0.871 µM and the “Log10 TGI” value (NCI-H522) was > -4.00. For the same compound, the GI50 (RPMI-2.26) was 93.3 µM, the GI50 (SK-OV-3) was 4.47 µM and the “Log10 TGI” value (LOX D6VI) was > -4.00. The GI50 (LOX D6VI; [2]) was 0.407 µM, the GI50 (A549/ATCC; Homo sapiens, A549, read-out: Log10 GI50 (converted)) was 0.977 µM and the “Log10 TGI” value (A549/ATCC) was > -4.00. For the same compound, the GI50 (PC-3; Homo sapiens, PC-3, read-out: Log10 GI50 (converted)) was 0.513 µM, the “Log10 TGI” value (PC-3) was > -4.00 and the “Log10 TGI” value [1] was > -4.00. The GI50 (M14; Homo sapiens, M14, read-out: Log10 GI50 (converted)) was 0.537 µM, the “Log10 TGI” value (M14) was -5.07 and the “Log10 TGI” value (785-4) was > -4.00. The GI50 (785-4; [2]) was 4.37 µM, the GI50 (NCI-H23; Homo sapiens, NCI-H23, read-out: Log10 GI50 (converted)) was 12 µM and the “Log10 TGI” value (NCI-H23) was > -4.00. The “Log10 TGI” value (MDA-N) was > -4.00, the GI50 (MDA-N; Homo sapiens, MDA-N, read-out: Log10 GI50 (converted)) was 46.8 µM and the “Log10 TGI” value (SNB-19) was > -4.00. The GI50 (SNB-19; Homo sapiens, SNB-19, read-out: Log10 GI50 (converted)) was 1.95 µM, the GI50 (MDA-MB-231/ATCC) was > 100 µM and the “Log10 TGI” value (K2112) was > -4.00. For the same compound, the GI50 (K-562; Homo sapiens, K562, read-out: Log10 GI50 (converted)) was 25.7 µM, the “Log10 TGI” value (K-562) was > -4.00 and the GI50 (COLO205) was 93.3 µM. The “Log10 TGI” value (MCF7) was > -4.00, the GI50 (MCF7; Homo sapiens, MCF7, read-out: Log10 GI50 (converted)) was 1.12 µM and the GI50 (SR; Homo sapiens, SR, read-out: Log10 GI50 (converted)) was 1.12 µM. The “Log10 TGI” value (SR) was > -4.00, the GI50 (MALME-3M; Homo sapiens, Malme-3M, read-out: Log10 GI50 (converted)) was 30.9 µM and the “Log10 TGI” value (MALME-3M) was > -4.00. For the same compound, the GI50 (UACC-62; Homo sapiens, UACC-62, read-out: Log10 GI50 (converted)) was 2.95 µM and the “Log10 TGI” value (UACC-62) was > -4.00.
